Results: patent publication US10532028B2, “Method to improve characteristics of spray dried powders and granulated materials, and the products thereby produced” (ISP INVESTMENTS LLC, priority 2005, dated 2020)

Legend:
[1] = CoQ10 USP dissolution, apparatus II (paddles); assay type: physicochemical; conditions: 37° C.
Description: • 1. Coenzyme Q10 (CoQ10) was spray dried with polyvinylpyrrolidone (PVP) (Plasdone® K-29/32, International Specialty Products) in the ratio 1 CoQ10:3 PVP at 20% total solids. Two spray dried powders were produced, one from 100% dichloromethane (DCM) and the other from a blend of 80% DCM, 20% acetone. CoQ10 is soluble in both DCM and acetone, while PVP is only soluble in DCM. All other spray drying conditions remained the same. • 2. Sample analysis included USP dissolution using apparatus II (paddles). All samples were hand-filled into size 1 gelatin capsules. The bath temperature was 37° C. with a paddle speed of 50 rpm for the first 60 minutes and then 200 rpm for an additional 15 minutes. The dissolution media contained 2% Cremophor® EL (BASF Corp.), and 4% Acconon® MC8 (Abitec Corp.). […] It is surprising that the time for 50% CoQ10 dissolution (t50%) was shortened from 18 minutes (100% solvent) to 5 minutes (solvent/non-solvent blend). Similarly, the time for 80% CoQ10 dissolution (t80%) was shortened from 68 minutes to 12 minutes by the switch from 100% solvent to the solvent/non-solvent blend. • 4. […] Other advantages of the solvent/non-solvent blend approach include lower residual solvent content and higher density.

[2] = Crystallinity by (modulated) differential scanning calorimetry; assay type: physicochemical; conditions: MDSC, heat-only conditions, aluminum hermetic pans
Procedure: • 1. 1 part Carbamazepine (CBZ) was spray dried with 1 part polyvinylpyrrolidone (PVP) (Plasdone® K-29/32, International Specialty Products) and 1 part polyvinylpyrrolidone-co-vinyl acetate (PVP-VA) (Plasdone® S-630, International Specialty Products) from solvent and solvent/non-solvent solutions at 10% solids by weight. Solvent was dichloromethane (20%), non-solvent was acetone (80%). • 2. Spray drying was conducted on an SD-Micro® (Niro, Inc.) spray dryer under identical experimental conditions other than solvent composition. • 3. Results: • a. […] CBZ from solvent/non-solvent solution • 1) Particle morphology: spherical as shown in FIG. 2B. • 2) Particle size (from optical microscopy): 3 μm-5 μm • 3) Residual solvent immediately after spray drying: 2.0% • 4) Bulk density: 0.057 g/mL • 5) Density after 1250 taps: 0.18 g/mL • 6) Spherical morphology was unexpected, based on previous examples, expected particles to be dimpled, raisin-like, or folded.
• The two solutions were spray dried under identical conditions on an SD-Micro® (Niro, Inc.) spray dryer to yield spray dried powders. • 2. The two compositions were analyzed for EFV crystallinity using differential scanning calorimetry. Both powders were amorphous, as indicated by the absence of an EFV melt endotherm (FIG. 5). • 3. […]

[3] = Table 1, 75 minutes test, 2% Cremophor EL + 4% Acconon MC8

Question: What does the source list for `COC1=C(OC)C(=O)C(C/C=C(\C)CC/C=C(\C)CC/C=C(\C)CC/C=C(\C)CC/C=C(\C)CC/C=C(\C)CC/C=C(\C)CC/C=C(\C)CC/C=C(\C)CCC=C(C)C)=C(C)C1=O` [CoQ10 (as received), Coenzyme Q10]?
Answer: max. CoQ10 release ([1]; 50 rpm for 60 min then 200 rpm for 15 min, 2% Cremophor EL + 4% Acconon MC8, size 1 gelatin capsules): 4.3%; T80% (time for 80% CoQ10 dissolution) [1, 3]: not attained; t50% (time for 50% CoQ10 dissolution) [1, 3]: not attained; crystallinity [2]: 100%
